Results from PubChem BioAssay AID1918949 (Molecular Pharmacology Branch, DTP, NCI, 2023).
Values joined by “and” are separate entries in the source; they are usually repeats but may differ in a detail not shown here. Equal entries are not always repeated.

Test system: K24384-001-R-PDC complex spheroid viability
Assay: Anticancer human tumor K24384-001-R-PDC patient-derived pancreatic adenocarcinoma cell line growth inhibition
Conditions: for viability, T/C: stronger effect = lower value
Excerpt: Multicellular complex tumor spheroid response to LSD1 Inhibitor Iadademstat in combination with a variety of drugs and investigational agents in selected tumor cell lines
The current study was undertaken to assess response to LSD1 inhibitors in combination with standard-of-care drugs and investigational agents in solid tumor complex spheroid models as well as in the K-562 leukemia. Complex spheroids include a stromal component modeled by human endothelial cells (HUVEC) and fibroblasts modeled by human mesenchymal stem cells (MSCs). The concentration ranges selected for each drug and investigational agent were based upon clinically achievable concentrations if the clinical Cmax of the agent was known.
Compounds. The drugs and investigational agents used in this study are listed on Table 1. All of the agents used, including staurosporine (NSC755774) and gemcitabine (NSC613327), were obtained from the Developmental Therapeutics Program, NCI. FDA-approved anticancer drugs are available from the NCI at http://dtp.nci.nih.gov/branches/dscb/oncology_drugset_explanation.html. Drugs and investigational agents were >95% pure by proton nuclear magnetic resonance (NMR) and liquid chromatography/mass spectrometry (LC/MS). Stock solutions were prepared at 400x in DMSO, stored at -70 degrees C, and diluted in fresh medium prior to their use. The final concentration of DMSO in cell culture wells never exceeded 0.25% (v/v). The FDA-approved anticancer drug set is available from the Developmental Therapeutics Program at https://dtp.cancer.gov/organization/dscb/obtaining/available_plates.htm. All drugs and investigational agents were tested over a range starting from a high concentration at or near the clinical Cmax and decreasing in half-log increments. If the clinical Cmax for an agent had not been determined, the highest concentration tested was 10 microM.
Cell Lines. The patient-derived cancer cell (PDC) lines: 292921-168-R-J2-PDC, K24384-001-R-PDC, and 521955-158-R2-J5-PDC pancreatic carcinomas, 556581-035-R-J1 ovarian carcinoma, 324938-238-R-J1-PDC, 855422-203-R-J1-PDC and 883617-216-R-J1-PDC urothelial bladder carcinomas, 743489-274-T-PDC renal cell carcinoma, 138582-R-J1 Merkel cell tumor, K60290-347-R-J1 and K57222-313-R-J1-PDC glioblastomas, 653999-131-R-J2-PDC, LG0703-F948-PDC, and 349418-098-R-PDC non-small cell lung carcinomas, 885512-296-R-J2-PDC, 171881-019-R-J1-PDC breast carcinomas and 186277-243-T-J2-PDC and 233499-124-R-J2-PDC colon carcinomas were obtained from the NCI Patient-Derived Models Repository (PDMR, https://pdmr.cancer.gov). The established cell lines NCI/ADR-RES (RRID:CVCL_14520 and OVCAR-5 (RRID:CVCL_1628) ovarian carcinomas, 786-O (RRID:CVCL_1051) and A498 (RRID:CVCL_A498) renal cell carcinoma, NCI-H211 (ATCC, cat. CRL-5824; RRID:CVCL_1529), NCI-H196 (ATCC, cat. CRL-5823, RRID:CVCL_1509), SW 1271 (ATCC, cat. CRL-2177, RRID:CVCL_1716) and NCI-H1876 (ATCC, cat. CRL-5902, RRID:CVCL_1503) small cell lung carcinomas, MDA-MB-231 (RRID:CVCL_0062) and MDA-MB-468 (RRID:CVCL_0419)breast carcinomas (10-12). Pooled donor human umbilical vein endothelial cells (HUVEC, Lonza, cat. CC-2519) and human mesenchymal stem cells (hMSC, Lonza, cat. PT-2501) were purchased from Lonza (Walkersville, MD).
Cell Culture. All cells were maintained in an incubator at 37 degrees C and 5% CO2 with 95% humidity. The PDC lines were cultured according to standard operating procedures established by the NCI PDMR (https://pdmr.cancer.gov). Briefly all PDCs were thawed and cultured in Matrigel-coated flasks prepared with a working solution of 1X Ham's F-12 nutrient mix, without supplementation (Invitrogen, Waltham, MA, cat. 11765054), 100 U/mL penicillin-streptomycin (Invitrogen, cat. 15140122), and 2.5% Matrigel (Corning Inc., Corning, NY, cat. 354248) for the first three passages. […]
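Further: spheroids exposed to agents for seven days before luminescence viability reading.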
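Wherever viability, T/C is given: 100% = DMSO vehicle control viability.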

SMILES | IC50 (curve of compound) | viability, T/C (compound 0.00316 µM) | viability, T/C (compound 0.01 µM) | viability, T/C (compound 0.0316 µM) | viability, T/C (compound 0.1 µM) | viability, T/C (compound 0.316 µM) | viability, T/C (compound 1 µM) | viability, T/C (compound 0.00949 µM) | viability, T/C (compound 0.03 µM) | viability, T/C (compound 0.0949 µM) | viability, T/C (compound 0.3 µM) | other results
CC(C)CC(NC(=O)CNC(=O)c1cc(Cl)ccc1Cl)B1OC(=O)CC(CC(=O)O)(C(=O)O)O1 (stereo unspecified) | 8.28 nM and 11.1 nM | 91.3% and 79.2% | 42.1% and 59.8% | 4.17% and 4.53% | 0.95% and 1.47% |  |  |  |  |  |  | viability, T/C (compound 0.000316 µM): 100% and 107%; viability, T/C (compound 0.001 µM): 103% and 86.3%
CC1(C)CCC(CN2CCN(c3ccc(C(=O)NS(=O)(=O)c4ccc(NCC5CCOCC5)c([N+](=O)[O-])c4)c(Oc4cnc5[nH]ccc5c4)c3)CC2)=C(c2ccc(Cl)cc2)C1 | 4050 nM and 4230 nM |  |  | 95.9% and 81.9% | 97.3% and 90.8% | 96.5% and 92.7% | 106% and 78.1% |  |  |  |  | viability, T/C (compound 3.16 µM): 63.5% and 67.6%; viability, T/C (compound 10 µM): 0.81% and 1.22%
CCN(c1cc(-c2ccc(CN3CCOCC3)cc2)cc(C(=O)NCc2c(C)cc(C)[nH]c2=O)c1C)C1CCOCC1 | > 3000 nM |  |  |  |  |  |  | 114% and 95.8% | 107% and 113% | 117% and 106% | 96.4% and 99.3% | viability, T/C (compound 0.949 µM): 81.8% and 84.4%; viability, T/C (compound 3 µM): 63.5% and 72.9%
COc1cc(C2c3cc4c(cc3C(OC3OC5COC(C)OC5C(O)C3O)C3COC(=O)C23)OCO4)cc(OC)c1O (stereo unspecified) | 1590 nM and 461 nM |  |  |  |  |  |  | 96.2% and 95.2% | 91.9% and 98.1% | 82% and 74.3% | 62.3% and 52.5% | viability, T/C (compound 0.949 µM): 59.8% and 49.5%; viability, T/C (compound 3 µM): 42.1% and 33%
COc1cc(Nc2ncc3c(n2)-c2ccc(Cl)cc2C(c2c(F)cccc2OC)=NC3)ccc1C(=O)O | > 1000 nM | 106% and 74.5% | 94.8% and 78.3% | 85.9% and 62.4% | 69.7% and 63.6% | 79.4% and 69.7% | 87.7% and 70.3% |  |  |  |  | 
COc1ccc([C@@H](O)c2cc(-c3ncnc4cc(N5CCOCC5)ccc34)c(F)cc2Cl)nn1 | 2070 nM and 2110 nM |  |  | 102% and 111% | 94.1% and 102% | 94.3% and 82.1% | 68.3% and 63.3% |  |  |  |  | viability, T/C (compound 3.16 µM): 39.1% and 44.5%; viability, T/C (compound 10 µM): 15.3% and 16.4%
NC1CC1c1ccc(-c2cccc(O)c2)cc1 (stereo unspecified) |  |  |  |  | 108% |  |  |  |  |  |  | IC50 (compound alone, run of 02/21/2022): > 10000 nM
NC1CCC(NC2CC2c2ccccc2)CC1 (stereo unspecified) |  |  |  |  |  | 83.6% and 74.8% |  |  |  |  |  | IC50 (compound alone, run of 02/15/2022): > 10000 nM
Nc1ccn(C2OC(CO)C(O)C2(F)F)c(=O)n1 (stereo unspecified) | 62.5 nM and 45.8 nM |  |  |  |  |  |  | 73% and 73.2% | 60.7% and 53.4% | 44% and 42.3% | 33.9% and 28.2% | viability, T/C (compound 0.000949 µM): 97.6%; viability, T/C (compound 0.003 µM): 89% and 86.8%
Nc1ncn(C2CC(O)C(CO)O2)c(=O)n1 (stereo unspecified) | > 1000 nM | 98.6% and 96.8% | 88.9% and 94.9% | 93% and 100% | 84.2% and 77.6% | 75.6% and 75.5% | 75% and 87.2% |  |  |  |  | 
Nc1ncn(C2CC(O)C(CO)S2)c(=O)n1 (stereo unspecified) | > 300 nM |  |  |  |  |  |  | 96.3% and 85.4% | 83.3% and 89.3% | 81.3% and 69.1% | 55.9% and 56.2% | viability, T/C (compound 0.000949 µM): 93.1% and 95.2%; viability, T/C (compound 0.003 µM): 96.3% and 88.6%
O=C(C=Cc1cccc(S(=O)(=O)Nc2ccccc2)c1)NO | 250 nM and 268 nM |  |  |  |  |  |  | 120% and 101% | 127% and 112% | 114% and 105% | 38% and 43.9% | viability, T/C (compound 0.949 µM): 4.5% and 5.62%; viability, T/C (compound 3 µM): 0.23% and 0.24%
O=C(C=Cn1cnc(-c2cc(C(F)(F)F)cc(C(F)(F)F)c2)n1)NNc1cnccn1 | 45.2 nM and 32.6 nM | 74% and 75.6% | 61.5% and 68% | 60.1% and 51.8% | 35.2% and 28.2% | 29.8% and 27.7% | 19.4% and 19.7% |  |  |  |  | 

More lines, main results first:

IC50 (curve of compound) | SMILES | viability, T/C (compound 0.00316 µM) | viability, T/C (compound 0.01 µM) | viability, T/C (compound 0.0316 µM) | viability, T/C (compound 0.1 µM) | viability, T/C (compound 0.316 µM) | viability, T/C (compound 1 µM) | viability, T/C (compound 0.00949 µM) | viability, T/C (compound 0.03 µM) | viability, T/C (compound 0.0949 µM) | viability, T/C (compound 0.3 µM) | other results
0.497 nM and 0.552 nM | CC(C)CC(NC(=O)C(Cc1ccccc1)NC(=O)c1cnccn1)B(O)O (stereo unspecified) | 0.39% and 0.47% | 0.38% | 0.34% and 0.41% | 0.36% and 0.35% |  |  |  |  |  |  | viability, T/C (compound 0.000316 µM): 81.2% and 95.6%; viability, T/C (compound 0.001 µM): 1.67% and 1.46%
> 10000 nM | CC(C)c1c(-c2ccccc2)nc2c(C#N)c[nH]n2c1=O |  |  | 89.9% and 82.5% | 88.6% and 104% | 96.9% and 93.2% | 94.9% and 81.5% |  |  |  |  | viability, T/C (compound 3.16 µM): 97.4% and 69.9%; viability, T/C (compound 10 µM): 104% and 91.6%
35.1 nM and 8.59 nM | CC1COCCN1c1cc(-c2ccnn2C)c2ccnc(-c3ccn[nH]3)c2n1 (stereo unspecified) | 64.7% and 53.9% | 56.8% and 55.5% | 47.3% and 37.6% | 46.8% and 42.9% | 49.4% and 44.7% | 38.1% and 38.2% |  |  |  |  | 
2830 nM and 2530 nM | CC1COCCN1c1cc(C2(S(C)(=N)=O)CC2)nc(-c2ccnc3[nH]ccc23)n1 (stereo unspecified) |  |  | 103% and 94.9% | 97.9% and 102% | 107% and 81.7% | 75.8% and 67.1% |  |  |  |  | viability, T/C (compound 3.16 µM): 45.8% and 42.4%; viability, T/C (compound 10 µM): 48.6% and 44.5%
> 100 nM and 21.4 nM | CC[C@@]1(O)C(=O)OCc2c1cc1n(c2=O)Cc2cc3c(CN(C)C)c(O)ccc3nc2-1 | 83.1% and 87.1% | 73% and 57.5% | 61.3% and 49.8% | 49.9% and 42.5% |  |  |  |  |  |  | viability, T/C (compound 0.000316 µM): 107% and 94.3%; viability, T/C (compound 0.001 µM): 107% and 78.8%
3.16 nM and < 0.949 nM | CCc1c2c(nc3ccc(O)cc13)-c1cc3c(c(=O)n1C2)COC(=O)[C@]3(O)CC |  |  |  |  |  |  | 32.7% | 9.62% and 11.7% | 6.2% and 6.67% | 5% and 5.21% | viability, T/C (compound 0.000949 µM): 54.8% and 42%; viability, T/C (compound 0.003 µM): 49.9% and 39.2%
> 100 nM | Cn1ncnc1C1c2n[nH]c(=O)c3cc(F)cc(c23)NC1c1ccc(F)cc1 (stereo unspecified) | 87.1% and 102% | 93.5% and 95% | 90.6% and 95.1% | 80.4% and 76.9% |  |  |  |  |  |  | viability, T/C (compound 0.000316 µM): 108% and 99.6%; viability, T/C (compound 0.001 µM): 105% and 115%
338 nM and 362 nM | NS(=O)(=O)OCC1CC(n2ccc3c(NC4CCc5ccccc54)ncnc32)CC1O (stereo unspecified) |  |  |  |  |  |  | 98.5% and 116% | 123% and 143% | 109% and 126% | 52.2% and 53.9% | viability, T/C (compound 0.949 µM): 34.3% and 34.6%; viability, T/C (compound 3 µM): 19.9% and 22.4%
438 nM and 432 nM | Nc1ccccc1NC(=O)c1ccc(CNC(=O)OCc2cccnc2)cc1 |  |  |  |  |  |  | 95.6% and 102% | 102% and 108% | 89.1% and 128% | 69.4% and 70.9% | viability, T/C (compound 0.949 µM): 11.8% and 9.62%; viability, T/C (compound 3 µM): 0.21% and 0.26%
> 10000 nM | O=C(c1cc(Cc2n[nH]c(=O)c3ccccc23)ccc1F)N1CCN(C(=O)C2CC2)CC1 |  |  | 104% and 94.8% | 97.3% and 91.9% | 91% and 88.9% | 85.5% and 81.4% |  |  |  |  | viability, T/C (compound 3.16 µM): 82.9% and 67.7%; viability, T/C (compound 10 µM): 84.4% and 70.1%
